Structures are written as SMILES.

Here are results for seven compounds from patent publication US20100278733A1, “COMPOSITION FOR DIAGNOSIS OF AMYLOID-RELATED DISEASE” (priority 2007, published 2010).

In data set [1] the target is T1, Aβ(1-42) aggregate (Homo sapiens, UniProt P05067).
T1 construct: Amyloid β protein (Human, 1-42) [TFA form] was purchased from Peptide Institute, Inc; purchased Peptide Institute, Inc
Nature of the data set: In-vitro binding inhibition experiment using Aβ(1-42) aggregate (Reference Example 2). To be noted: ligand [^125I]4-dimethylamino-4′-iodochalcone; compound numbers of Reference Example 2; read-out: Inhibition constant (Ki, nM) (mean ± SE). The method, then: Amyloid β protein (Human, 1-42) [TFA form] was purchased from Peptide Institute, Inc., and special grade reagents were used as other reagents. ^1H-NMR was measured using Varian Gemini 300 and tetramethylsilane as an internal standard substance.
The Aβ(1-42) aggregate was dissolved in a buffer containing 10 mM sodium phosphate and 1 mM EDTA (pH 7.4) at a concentration of 0.5 mg/mL, and the mixture was incubated at 37° C. for 36 to 42 h. The binding inhibition experiment was performed using 12×75-mm borosilicate glass tubes. 850 μL of 10% ethanol solution, 50 μL of [^125I]4-dimethylamino-4′-iodochalcone (in 10% aqueous ethanol), 50 μL (29 nM) of an Aβ(1-42) aggregate solution, and 50 μL of a solution of fluorine-containing chalcone derivatives in 10% aqueous ethanol prepared at various concentrations were mixed, and the mixture was allowed to stand at room temperature for 3 h. Further, nonspecific binding was calculated using 4-dimethylamino-4′iodochalcone (400 nM), a nonradioactive compound. Aβ aggregate-bound chalcone derivatives and nonbound chalcone derivatives were separated with a Brandel M-24R cell harvester using Whatman GF/B filters. Radioactivities of substances remaining on the filter were measured with a γ counter. The 50% inhibitory concentrations were calculated using Graph Pad Prism (graph pad software), and inhibition constants (Ki values) were calculated by Cheng-Prusoff equation, Ki=IC50/(1+[L]/Kd). In this equation, the concentration of [^125I]4-dimethylamino-4′-iodochalcone used in the experiment was used for [L], and the dissociation constant of [^125I]4-dimethylamino-4′-iodochalcone against the Aβ(1-42) aggregate was used for Kd.

Data set [2] is described as follows: In-vivo radioactivity distribution experiment in normal mice (Reference Example 2). The following applies: Reference Example 2 numbering; for Radioactivity concentration in the brain of mice: intravenous. The method, then: Labeled compounds, [^11C]Compounds 23 and 7, were diluted with physiological saline containing 10% ethanol. 100 μL of each of the labeled compounds was intravenously infused to five 5-week-old male ddY mice per group, the animals were decapitated at 2, 10, 30, or 60 min, blood was collected, and then weights and radioactivities thereof were measured.

Data set [3] can be described thus: In-vivo radioactivity distribution experiment using normal mice (Example 2). To be noted: Example 2 numbering; for In-vivo radioactivity distribution: blood / In-vivo radioactivity distribution: brain / In-vivo radioactivity distribution: heart / In-vivo radioactivity distribution: intestine / In-vivo radioactivity distribution: kidney / In-vivo radioactivity distribution: liver / In-vivo radioactivity distribution: lung / In-vivo radioactivity distribution: pancreas / In-vivo radioactivity distribution: spleen / In-vivo radioactivity distribution: stomach: normal mice, intravenous. The method, then:
Radioactive iodine labeling compounds were diluted with physiological saline containing 10% EtOH. To each of four or five 5-week-old male ddY mice (20 to 25 g) per group, […] of a labeled compound, [^125I]Compound 7, 10, 13, or 14 (0.2 to 0.4 mCi), was administered from the caudal vein. Animals were decapitated at 2, 10, 30, or 60 min, blood was collected, the major organs were isolated, and then weights and radioactivities thereof were measured.

The target of data set [4] is T1, Aβ(1-42) aggregate. Nature of the data set: Binding inhibition experiment using Aβ(1-42) aggregate, Ki values (Example 2). To be noted: radioactive ligand [^125I]CL-NMe2; mean ± standard error of 3 experiments (compound 4: 6 experiments); compound numbers of Example 2; read-out: Ki values calculated by inhibition experiment. The method, then:
As a radioactive iodine-125 (^125I), Iodine-125 (3.7 GBq/mL) manufactured by MP Biomedicals, Inc. was used. Reverse phase HPLC was performed at a flow rate of 1.0 mL/min using a Cosmosil 5C18-AR-II column (4.6×150 mm) manufactured by Nacalai Tesque Inc. and ultrapure water:acetonitrile=3:7 as an elution solvent. ^1HNMR was measured using Varian Gemini 300 and tetramethylsilane as an internal standard substance. Mass spectrometry was performed using JEOL IMS-DX300. Preparative TLC was performed using 12 PLC plates 20×20-cm-Silica gel 60 F254, 2 mm manufactured by MERCK. Amyloid β protein (Human, 1-42) was purchased from Peptide Institute, Inc., and special grade reagents were used as other reagents.
Aβ(1-42) was dissolved in 10 mM phosphate buffer containing 1 mM EDTA (pH 7.4) at a concentration of 0.25 mg/mL, and the mixture was incubated at 37° C. for 42 h to prepare an Aβ(1-42) aggregate.
[…] of 10% EtOH solution, […] of a solution of [^125I]4-diethylamino-4′-iodochalcone ([^125I]CL-NMe2) in 10% ethanol, and […] of a sample solution at various concentrations (0 to 20 mM) were mixed, […] of an Aβ(1-42) aggregate solution was finally added, and the mixture was allowed to stand at room temperature for 3 h. Aβ(1-42) aggregate-bound compounds and nonbound compounds were separated with a Brandel M-24R cell harvester using a Whatman GF/B filter. Radioactivities remaining on the filter after filtration were measured with a γ-counter, and inhibition curves were created using Graph Pad Prism 4.0 to calculate inhibition constants (Ki values).

T1 sequence (P05067 672-713 limits assumed): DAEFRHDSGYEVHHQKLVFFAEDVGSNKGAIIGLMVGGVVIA

With `CN(C)c1ccc(/C=C/C(=O)c2ccc(OCCOCCF)cc2)cc1` [Compound 5 in Reference Example 2, (E)-1-(4-(2-(2-fluoroethoxy)ethoxy)phenyl)-3-(4-(dimethylamino)phenyl)prop-2-en-1-one], the Ki on Aβ(1-42) aggregate [1] was 19 ± 1 nM.

For the compound `Nc1ccc(/C=C/C(=O)c2ccc(OCCOCCF)cc2)cc1` [Compound 16 in Reference Example 2, (E)-1-(4-(2-(2-fluoroethoxy)ethoxy)phenyl)-3-(4-aminophenyl)prop-2-en-1-one], the Ki on Aβ(1-42) aggregate [1] was 1000 ± 29 nM.

Turning to `CN(C)c1ccc(/C=C/C(=O)c2ccc(OCCF)cc2)cc1` [Compound 3 in Reference Example 2, (E)-1-(4-(2-fluoroethoxy)phenyl)-3-(4-(dimethylamino)phenyl)prop-2-en-1-one], the Ki at Aβ(1-42) aggregate [1] turned out to be 29 ± 2 nM.

On to `CN(C)c1ccc(/C=C/C(=O)c2ccc(OCCOCCOCCF)cc2)cc1` [Compound 7 in Reference Example 2, (E)-1-(4-(2-(2-(2-fluoroethoxy)ethoxy)ethoxy)phenyl)-3-(4-(dimethylamino)phenyl)prop-2-en-1-one], for which the “ratio of brain radioactivity at 60 min to that at 2 min after administration” value in data set [2] came out at 8.1%. Moreover, the “ratio of the radioactivity remaining in the brain at 30 min after administration to that at 2 min after administration” value in data set [2] turned out to be 14.8%. In addition, the “Radioactivity concentration in the brain of mice” value in data set [2] (2 min after administration, listed as [^11C] 7) amounted to 4.31 ± 0.33 % ID/g; in data set [2] (2 min after administration, listed as [^11C]Compound 7) it was 4.31 % ID/g; in data set [2] (10 min after administration) it was 1.38 ± 0.16 % ID/g; in data set [2] (30 min after administration), 0.64 ± 0.07 % ID/g; in data set [2] (60 min after administration, listed as [^11C] 7), 0.35 ± 0.03 % ID/g; in data set [2] (60 min after administration, listed as [^11C]Compound 7), 0.35 % ID/g.

With `CN(C)c1ccc(/C=C/C(=O)c2ccc(F)cc2)cc1` [Compound 23 in Reference Example 2, (E)-3-(4-(dimethylamino)phenyl)-1-(4-fluorophenyl) prop-en-1-one], the “ratio of brain radioactivity at 60 min to that at 2 min after administration” value in data set [2] worked out at 28.3%. Also, the “ratio of the radioactivity remaining in the brain at 30 min after administration to that at 2 min after administration” value in data set [2] was 28.3%. Further, the “Radioactivity concentration in the brain of mice” value turned out to be 3.68 ± 0.35 % ID/g in data set [2] (2 min after administration, listed as [^11C] 23); 3.68 % ID/g in data set [2] (2 min after administration, listed as [^11C]Compound 23); 1.53 ± 0.14 % ID/g in data set [2] (10 min after administration); 1.04 ± 0.15 % ID/g in data set [2] (30 min after administration); 1.04 ± 0.20 % ID/g in data set [2] (60 min after administration, listed as [^11C] 23); 1.04 % ID/g in data set [2] (60 min after administration, listed as [^11C]Compound 23).

For the compound `Nc1ccc(/C=C/C(=O)c2ccc(OCCF)cc2)cc1` [Compound 11 in Reference Example 2, (E)-1-(4-(2-fluoroethoxy)phenyl)-3-(4-aminophenyl)prop-2-en-1-one], the inhibition constant (Ki) at Aβ(1-42) aggregate [1] was found to be 553 ± 22 nM.

Turning to `CNc1ccc(C=CC(=O)c2ccc(I)s2)cc1` [Compound 13 in Example 2, 1-(5-iodo-2-thienyl)-3-(4-methylaminophenyl)-prop-2-en-1-one], the “stability in the organism” value in data set [3] (in words: radioactivity accumulation in the stomach, retention in blood, deiodination) was “instability in the organism”. Also, in data set [3] (2 min), the “In-vivo radioactivity distribution: blood” value is reported as 3.00 (0.83) percent of the dose/g, the “In-vivo radioactivity distribution: brain” value is 2.56 (0.44) percent of the dose/g, the “In-vivo radioactivity distribution: heart” value is on record as 3.55 (0.57) percent of the dose/g and the “In-vivo radioactivity distribution: intestine” value is 1.60 (0.32) percent of the dose/g. Also, in data set [3] (2 min), the “In-vivo radioactivity distribution: kidney” value was 4.50 (1.00) percent of the dose/g, the “In-vivo radioactivity distribution: liver” value was 8.41 (1.24) percent of the dose/g, the “In-vivo radioactivity distribution: lung” value is on record as 5.61 (1.33) percent of the dose/g and the “In-vivo radioactivity distribution: pancreas” value is listed as 3.73 (0.67) percent of the dose/g. In addition, in data set [3] (2 min), the “In-vivo radioactivity distribution: spleen” value is on record as 2.06 (0.49) percent of the dose/g and the “In-vivo radioactivity distribution: stomach” value is 1.48 (0.39) percent of the dose. Besides, in data set [3] (10 min), the “In-vivo radioactivity distribution: blood” value is on record as 3.68 (0.70) percent of the dose/g, the “In-vivo radioactivity distribution: brain” value is 1.13 (0.16) percent of the dose/g, the “In-vivo radioactivity distribution: heart” value was 2.48 (0.36) percent of the dose/g and the “In-vivo radioactivity distribution: intestine” value is 3.86 (0.20) percent of the dose/g. In data set [3] (10 min), the “In-vivo radioactivity distribution: kidney” value is on record as 6.59 (1.34) percent of the dose/g, the “In-vivo radioactivity distribution: liver” value was 13.29 (1.65) percent of the dose/g, the “In-vivo radioactivity distribution: lung” value is recorded as 6.33 (1.42) percent of the dose/g and the “In-vivo radioactivity distribution: pancreas” value is 2.53 (0.72) percent of the dose/g. Besides, in data set [3] (10 min), the “In-vivo radioactivity distribution: spleen” value is on record as 4.00 (1.55) percent of the dose/g and the “In-vivo radioactivity distribution: stomach” value is 5.13 (1.67) percent of the dose. Further, in data set [3] (30 min), the “In-vivo radioactivity distribution: blood” value is on record as 2.29 (0.32) percent of the dose/g, the “In-vivo radioactivity distribution: brain” value is given as 0.28 (0.06) percent of the dose/g, the “In-vivo radioactivity distribution: heart” value is given as 1.45 (0.17) percent of the dose/g and the “In-vivo radioactivity distribution: intestine” value is on record as 4.36 (1.49) percent of the dose/g. In addition, in data set [3] (30 min), the “In-vivo radioactivity distribution: kidney” value was 3.16 (0.80) percent of the dose/g, the “In-vivo radioactivity distribution: liver” value is listed as 5.10 (1.12) percent of the dose/g, the “In-vivo radioactivity distribution: lung” value is 3.17 (0.52) percent of the dose/g and the “In-vivo radioactivity distribution: pancreas” value is recorded as 1.48 (0.34) percent of the dose/g. In data set [3] (30 min), the “In-vivo radioactivity distribution: spleen” value is given as 2.06 (0.28) percent of the dose/g and the “In-vivo radioactivity distribution: stomach” value is 9.94 (1.69) percent of the dose. In data set [3] (60 min), the “In-vivo radioactivity distribution: blood” value was 2.89 (0.49) percent of the dose/g, the “In-vivo radioactivity distribution: brain” value is given as 0.15 (0.03) percent of the dose/g, the “In-vivo radioactivity distribution: heart” value was 1.43 (0.29) percent of the dose/g and the “In-vivo radioactivity distribution: intestine” value is on record as 6.26 (1.78) percent of the dose/g. Besides, in data set [3] (60 min), the “In-vivo radioactivity distribution: kidney” value is on record as 2.52 (0.48) percent of the dose/g, the “In-vivo radioactivity distribution: liver” value is reported as 4.32 (0.75) percent of the dose/g, the “In-vivo radioactivity distribution: lung” value is given as 3.11 (0.66) percent of the dose/g and the “In-vivo radioactivity distribution: pancreas” value is 1.76 (0.40) percent of the dose/g. In data set [3] (60 min), the “In-vivo radioactivity distribution: spleen” value is 2.52 (0.36) percent of the dose/g and the “In-vivo radioactivity distribution: stomach” value is recorded as 14.32 (1.81) percent of the dose. Also, the Ki on Aβ(1-42) aggregate [4] was 14.1 ± 0.6 nM.
